{"source": "patent US11197888B2", "about": "“LHRH-platinum conjugates for treating reproductive cancers” (priority 2015, dated 2021)", "test_system": "4T1 tumors", "experiment": "In-vivo analysis of impact on 4T1 tumor growth in Balb/c mice", "set-up": "species or system female Balb/c mice", "conditions": "4T1 tumors in mammary fat pad, carboplatin 5 mg/kg/wk or molar-equivalent Pt-LHRH, IP, 2 weeks, vs control", "procedure": "In this experiment at least one eleven week old female Balb/c mice were utilized. The animals were allowed to acclimate for 1 week before experimentation and were maintained on a 12 hours light and dark cycle, and fed standard rodent chow (Prolab ISOPRO RMH 3000 Irradiated Lab Diet; Purina Mills International). Animal protocols were approved by the committee on animal research care and use at Eastern Kentucky University. 4T1 tumors were grown in the right abdominal mammary fat pad of the mice for 7 days. After tumor initiation (˜100 mm3) the mice were administered Pt-LHRH (carboplatin molar-equivalent dosage) through IP injection and compared to those treated with carboplatin (5 mg/kg/wk), no treatment, and LHRH plus carboplatin (unbound) controls for 2 weeks. Tumor growth was monitored daily and tumor volumes (mm3) were calculated using the formula: (width) 2×length/2, where width is the smaller of the two measurements. At two weeks the mice were sacrificed and tumor volume and weight were measured."}
{"smiles": "N.N.O=C([O-])C1(C(=O)[O-])CCC1.[Pt+2]", "note": "[carboplatin]", "values": [{"measurement": "tumor growth", "value": "no statistically significant reduction in tumor growth"}]}
